Patent US7012078B2, “2-aminopyridines containing fused ring substituents” (Pfizer Inc., priority 1997, dated 2006)
Structures can show the parent of a compound that is named as a salt.

Compound | melting point
Nc1cccc(-c2ccc(OC3CCNCC3)c3ccccc23)n1 (as salt: hydrochloride) [Example 27, 6-[4-(Piperidin-4-yloxy)-naphthalen-1-yl]-Pyridin-2-ylamine] | 65 to 75 °C
Nc1cccc(-c2ccc(OCCNCc3ccc4c(c3)OCO4)c3ccccc23)n1 (as salt: hydrochloride) [Example 14, 6-(4-{2-[(Benzo[1,3]dioxol-5-ylmethyl)-amino]-ethoxy}-naphthalen-1-yl)-pyridin-2-ylamine] | 60 to 80 °C
COc1ccc2[nH]c3c(c2c1)CCN(CCc1ccc(-c2cccc(N)n2)c2ccccc12)C3 | 132 to 138 °C

More lines, now with the values ahead:

melting point | Compound
140 to 155 °C | Nc1cccc(-c2ccc(OCCN3CC4C(N)C4C3)c3ccccc23)n1 (centres unmarked) (as salt: hydrochloride) [Example 16, 3-{2-[4-(6-Amino-pyridin-2-yl)-naphthalen-1-yloxy]-ethyl}-3-aza-bicyclo[3.1.0]hex-6-ylamine]
105 to 120 °C | CN(C)CCCOc1ccc(-c2cccc(N)n2)c2ccccc12 (as salt: hydrochloride) [Example 35, 6-[4-(3-Dimethylamino-propoxy)-naphthalen-1-yl]-pyridin-2-ylamine]
